Reference: ChEMBL document CHEMBL1125828 (J Med Chem, 1991)

Columns and labels:
[1] = target: GABA-A receptor; anion channel; experiment: Inhibition of [3H]GABA binding to gamma-aminobutyric-acid A (GABA-A) receptor; format: protein-complex assay, Rattus norvegicus
[2] = target: GABA B receptor (Rattus norvegicus, UniProt O88871+Q9Z0U4); experiment: Displacement of [3H]baclofen from gamma-aminobutyric-acid B receptor; format: protein-complex assay
GABA B receptor, sequence (Q9Z0U4 whole entry): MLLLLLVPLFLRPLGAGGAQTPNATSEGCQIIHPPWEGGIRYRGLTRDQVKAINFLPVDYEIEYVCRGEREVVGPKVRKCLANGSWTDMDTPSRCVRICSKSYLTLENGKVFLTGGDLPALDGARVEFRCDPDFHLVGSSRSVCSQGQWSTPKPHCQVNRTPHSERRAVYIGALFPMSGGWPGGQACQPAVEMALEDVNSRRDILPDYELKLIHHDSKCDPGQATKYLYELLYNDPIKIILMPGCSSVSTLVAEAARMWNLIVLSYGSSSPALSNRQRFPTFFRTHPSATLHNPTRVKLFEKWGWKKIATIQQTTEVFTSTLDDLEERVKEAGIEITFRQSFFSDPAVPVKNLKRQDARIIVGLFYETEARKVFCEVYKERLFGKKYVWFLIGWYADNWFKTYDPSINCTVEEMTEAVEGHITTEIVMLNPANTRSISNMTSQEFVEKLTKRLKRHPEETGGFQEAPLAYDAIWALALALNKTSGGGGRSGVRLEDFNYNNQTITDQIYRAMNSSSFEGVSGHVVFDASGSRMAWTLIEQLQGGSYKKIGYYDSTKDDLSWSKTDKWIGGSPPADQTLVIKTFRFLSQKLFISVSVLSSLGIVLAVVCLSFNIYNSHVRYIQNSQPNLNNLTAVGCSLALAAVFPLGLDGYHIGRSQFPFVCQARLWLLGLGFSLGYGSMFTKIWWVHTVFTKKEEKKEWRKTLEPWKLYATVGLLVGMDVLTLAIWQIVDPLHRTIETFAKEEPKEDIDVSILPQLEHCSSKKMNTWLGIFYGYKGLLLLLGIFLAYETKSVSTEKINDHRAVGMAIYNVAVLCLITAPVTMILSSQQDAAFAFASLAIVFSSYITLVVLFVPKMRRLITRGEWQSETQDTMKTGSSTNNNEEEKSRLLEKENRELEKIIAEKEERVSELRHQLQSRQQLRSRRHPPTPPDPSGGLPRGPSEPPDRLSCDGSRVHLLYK
GABA B receptor, sequence (O88871 whole entry): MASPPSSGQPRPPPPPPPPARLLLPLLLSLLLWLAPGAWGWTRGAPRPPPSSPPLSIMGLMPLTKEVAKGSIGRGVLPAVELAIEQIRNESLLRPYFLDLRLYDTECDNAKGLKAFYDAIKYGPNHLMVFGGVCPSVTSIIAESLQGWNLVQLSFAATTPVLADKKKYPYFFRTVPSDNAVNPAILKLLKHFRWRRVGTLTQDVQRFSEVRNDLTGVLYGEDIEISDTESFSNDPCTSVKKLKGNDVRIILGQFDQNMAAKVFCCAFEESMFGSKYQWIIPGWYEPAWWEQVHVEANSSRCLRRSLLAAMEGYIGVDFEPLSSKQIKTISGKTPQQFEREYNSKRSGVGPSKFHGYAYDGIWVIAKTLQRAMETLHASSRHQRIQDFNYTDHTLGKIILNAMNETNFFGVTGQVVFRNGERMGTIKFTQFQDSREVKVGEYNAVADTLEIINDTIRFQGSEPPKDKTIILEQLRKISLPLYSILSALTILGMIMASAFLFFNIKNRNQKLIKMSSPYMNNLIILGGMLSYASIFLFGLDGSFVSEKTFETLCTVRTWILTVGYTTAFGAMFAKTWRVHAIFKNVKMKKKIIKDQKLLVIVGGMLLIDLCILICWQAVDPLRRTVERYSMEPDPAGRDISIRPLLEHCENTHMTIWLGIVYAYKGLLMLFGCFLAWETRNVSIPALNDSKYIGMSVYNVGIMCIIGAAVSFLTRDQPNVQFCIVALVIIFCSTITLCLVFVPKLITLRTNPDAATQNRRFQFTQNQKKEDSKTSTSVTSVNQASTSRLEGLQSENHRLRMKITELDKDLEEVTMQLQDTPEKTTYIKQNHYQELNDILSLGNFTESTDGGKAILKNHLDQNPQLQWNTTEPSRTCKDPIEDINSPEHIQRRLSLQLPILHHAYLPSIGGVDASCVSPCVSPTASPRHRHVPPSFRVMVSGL

Q: With `NCC(CC(=O)O)c1ccc(Cl)cc1Cl` (configuration not stated) as the compound, how does the IC50 [1] read?
A: > 100 µM

Q: What about the IC50 [2] of the same compound?
A: 11 µM

Q: `NCC1(CC(=O)O)CCCc2ccccc21` (configuration not stated) was tested. Which IC50 [1] did it give?
A: > 100 µM

Q: What about the IC50 [2] of the same compound?
A: > 100 µM

Q: `NCC(CC(=O)O)c1c(Cl)cccc1Cl` (configuration not stated) was tested. Which IC50 [1] did it give?
A: > 100 µM

Q: And the IC50 [2]?
A: > 100 µM

Q: What does the source list for `NCC1(CC(=O)O)CCc2ccccc21` (configuration not stated)?
A: IC50 [1]: > 100 µM; IC50 [2]: > 100 µM

Q: With `NCC1(CC(=O)O)Cc2ccccc21` (configuration not stated) as the compound, how does the IC50 [1] read?
A: > 100 µM

Q: What about the IC50 [2] of the same compound?
A: > 100 µM

Q: With `NCC1(CC(=O)O)CCc2cc(Cl)ccc21` (configuration not stated) as the compound, how does the IC50 [1] read?
A: > 100 µM

Q: And the IC50 [2]?
A: > 100 µM
